# Measurements from US20100087788A1, “Anti-infective alcohol catheter solution with chlorhexidine treated catheter” (priority 2006, published 2010).
# Legend:
# [1] = tested on: E. faecalis; experiment: MBC of chlorhexidine diacetate alone and at 80% of the ethanol MIC; format: cell-based
# Protocol: (§1) Determinations of Minimum Inhibitory Concentration (MIC) and Minimum Bacteriocidal Concentration (MBC) were performed using standard microbiological techniques. Chlorhexidine diacetate was tested at the following μg/mL concentrations: 256, 128, 64, 32, 16, 8, 4, 2, 1, 0.5, 0.25, and 0.125. Ethanol was tested at the following percent (%) concentrations: 50, 40, 30, 25, 20, 15, 12, 10, 7, and 5. Dilutions were prepared in Cationic Adjusted Mueller Hinton Broth (CAMHB). All tests were performed in microtiter plates with a total test volume of 100 μL, including diluted antimicrobial agent and inoculum. Concentrations of antimicrobial agents were prepared at 2× concentration, and 50 μL was added to each well of a microtiter plate, to which 50 μL of inoculum of the test organism was added to give the target test concentration.
# (§2) Inoculum was prepared by transfer of isolated colonies from agar plates to 10 mL of trypticase soy broth (TSB), and incubation at 37° C. for 4 hrs. Cells were subsequently centrifuged, and resuspended twice in phosphate buffered saline. The population of this bacterial suspension was determined by reading optical density at 670 nm. Final concentrations of inoculum were adjusted to a range of approximately 5×10^4 cfu/mL, using CAMHB as a diluent. Initial concentrations were verified using the Miles and Misra drop count method. […]
# [2] = tested on: E. coli; experiment: as above; format: cell-based
# From the text: (§3) The synergy of ethanol and chlorhexidine is illustrated in Table 2 by measurement of the minimum bacteriocidal concentration (MBC) of chlorhexidine at ethanol concentrations that are subinhibitory (80% of the ethanol minimum inhibitory concentration).
# [3] = tested on: S. aureus; experiment: as above; format: cell-based
# From the text: as §3
# [4] = tested on: E. faecalis, S. aureus, E. coli; experiment: Change of chlorhexidine MBC at subinhibitory ethanol (summary of Table 2); format: cell-based; details: ethanol at 80% of the ethanol MIC
# Protocol: as §1, §2
# [5] = Release kinetics of chlorhexidine from loaded catheter segments; format: physicochemical; details: catheter segments 200 micrograms/cm
# Protocol: 5Fr Catheter segments were bulk impregnated with chlorhexidine base (CHX) by soaking in an ethyl acetate solution of CHX and then evaporating the solvent. The chlorhexidine mass per unit length was determined by dissolving the catheter […] extracting the chlorhexidine. The measure mass of chlorhexidine was approximately 200 micrograms per cm. 5Fr catheter segments were similarly impregnated with chlorhexidine diacetate to a level of 200 micrograms/cm by soaking in an ethyl acetate-methanol solution followed by evaporation. These segments were used in Zone of inhibition testing and release kinetics testing.
# Release kinetics measurements were performed of chlorhexidine base (CHX) and chlorhexidine diacetate (CHA) loaded catheter segments (200 micrograms/cm) in water and in 25% ethanol lock. One cm long catheter segments were placed in 10 ml of 25% ethanol lock solution. At each sampling point the eluting solution was removed and replaced with fresh solution. The amount of chlorhexidine released was measured by UV absorbance readings at 263 nm on the eluting lock solution relative to a reference curve of chlorhexidine standards prepared to known concentrations in 25% ethanol lock. Cumulative % release was calculated from the measured amount released at each time point and the quantity of chlorhexidine loaded into the catheter segments.
# [6] = Solubility of chlorhexidine salts in ethanol (100%) and water; format: physicochemical; details: for Ethanol Solubility: ethanol (100%)
# [7] = tested on: C. albicans ATCC 10231; details: ethanol
# Protocol: as §1
# (§4) Inoculum was prepared by transfer of isolated colonies from agar plates to 10 mL of trypticase soy broth (TSB), and incubation at 37° C. for 4 hrs. Cells were subsequently centrifuged, and resuspended twice in phosphate buffered saline. The population of this bacterial suspension was determined by reading optical density at 670 nm. Final concentrations of inoculum were adjusted to a range of approximately 5×10^4 cfu/mL, using CAMHB as a diluent. Initial concentrations were verified using the Miles and Misra drop count method. To each test well of a microtiter plate, 50 μl of inoculum was added along with 50 μl of the 2× concentration of the antimicrobial agent being tested. Incubation was at 37° C. for 16 to 20 hours.
# (§5) To determine MBC values, 50 μl was removed from each well showing inhibition of growth (MIC and greater). Solutions from these inhibitory concentrations of antimicrobial agent were diluted in CAMHB to concentrations where they would no longer inhibit the growth of the test organism. Recovery counts were obtained by plating aliquots of the diluted material onto TSA plate containing 5% sheep's blood, and incubating 24 hours at 37° C.
# [8] = tested on: E. cloacae ATCC 13047; details: ethanol
# Protocol: as §1, §4, §5
# [9] = tested on: E. coli ATCC 25922; details: ethanol
# Protocol: as §1, §4, §5
# [10] = tested on: E. faecalis ATCC 51299; details: ethanol
# Protocol: as §1, §4, §5
# [11] = tested on: K. pneumoniae ATCC 10031; details: ethanol
# Protocol: as §1, §4, §5
# [12] = tested on: P. aeruginosa ATCC 27853; details: ethanol
# Protocol: as §1, §4, §5
# [13] = tested on: S. aureus ATCC 29213; details: ethanol
# Protocol: as §1, §4, §5
# [14] = tested on: S. epidermidis ATCC 35983; details: ethanol
# Protocol: as §1, §4, §5
# [15] = tested on: most commonly encountered infectious pathogens; details: conclusion from Table 1
# Protocol: as §1, §4, §5
# [16] = tested on: most microorganisms; details: Sissons et al. 1996; cited from earlier work
compound,measurement,setting,value
"CC(=O)O.CC(=O)O.NC(=N\CCCCCC/N=C(N)/N=C(\N)Nc1ccc(Cl)cc1)/N=C(\N)Nc1ccc(Cl)cc1 [CHA, chlorhexidine diacetate]",MBC for CHA @ 80% MIC ETOH,[1]; ethanol 5.6% (80% of MIC),4 µg/mL
same,MBC for CHA,[1]; no ethanol,8 µg/mL
same,MBC for CHA @ 80% MIC ETOH,[2]; ethanol 8% (80% of MIC),2 µg/mL
same,MBC for CHA,[2]; no ethanol,4 µg/mL
same,MBC for CHA @ 80% MIC ETOH,[3]; ethanol 9.6% (80% of MIC),1 µg/mL
same,MBC for CHA,[3]; no ethanol,1 to 2 µg/mL
same,drop of chlorhexidine MBC in the presence of subinhibitory ethanol concentrations,[4],approximately 50%
same,"release of chlorhexidine from catheter into 25% ethanol lock solution, compared with chlorhexidine base (FIG. 2)",[5],releases faster
Laurate,Ethanol Solubility,[6],200 mg/mL
same,Water Solubility,[6],0.01 mg/mL
CCO [ethanol],MBC,[7],10%
same,MIC,"[7]; CAMHB, 37° C., 16 to 20 hours",7%
same,MBC,[8],10%
same,MIC,"[8]; CAMHB, 37° C., 16 to 20 hours",7%
same,MBC,[9],15%
same,MIC,"[9]; CAMHB, 37° C., 16 to 20 hours",10%
same,MBC,[10],10%
same,MIC,"[10]; CAMHB, 37° C., 16 to 20 hours",7%
same,MBC,[11],25%
same,MIC,"[11]; CAMHB, 37° C., 16 to 20 hours",10%
same,MBC,[12],12%
same,MIC,"[12]; CAMHB, 37° C., 16 to 20 hours",7%
same,MBC,[13],25%
same,MIC,"[13]; CAMHB, 37° C., 16 to 20 hours",12%
same,MBC,[14],10-12%
same,MIC,"[14]; CAMHB, 37° C., 16 to 20 hours",12%
same,ethanol concentration at which the solution will not inhibit microbial growth,[15],below 7%
same,ethanol lock concentration cidal towards most commonly encountered infectious pathogens,[15],above 25%
same,concentration that inhibits the growth of most microorganisms,[16],10%
same,concentrations generally considered bactericidal,[16],≥ 40%
CCCCC(=O)O.CCCCC(=O)O.N=C(NCCCCCCNC(=N)NC(=N)Nc1ccc(Cl)cc1)NC(=N)Nc1ccc(Cl)cc1 [Valerate],Ethanol Solubility,[6],20 mg/mL
same,Water Solubility,[6],1.2 mg/mL
